# Data from paper PMC10914731, “Homo-BacPROTAC-induced degradation of ClpC1 as a strategy against drug-resistant mycobacteria” (Nature Communications, 2024).
# Several values for one entry are separate records, joined by “and”; a condition that tells them apart may be missing. Identical values can stand only once. Like-named read-outs stand apart in the source and are kept apart here.
# How the values were obtained:
# in vivo = assay type: in vivo, BALB/cAnNCrl mice; conditions: mice
# Protocol: The in-life experimental procedures were conducted in strict compliance with German and European animal welfare legislation in an AAALAC-accredited facility. Male BALB/cAnNCrl mice (Charles River Laboratories Research Models and Services, 97633 Sulzfeld, Germany) were used. Animals were 9 weeks old at dosing with a body weight of 21.6–24.3 g. Animals were delivered free of pathogens according to FELASA recommendations with a health certificate provided by the breeder. Upon receipt, the state of health and sex was checked. Animals acclimatized for at least 5 days before the commencement of the in-life phase. During acclimation, animals were group-housed in individually ventilated cages, on birch wood granulate bedding with species-specific enrichment (nesting material, mouse igloo, gnawing wood). During experimental conduct, animals were housed in conventional cages with elevated grid floors. Grid floor was used to avoid contamination with test item material excreted via urine and feces and subsequent reuptake during fur grooming. No bedding and enrichment were provided except a cage divider, which can be used as a shelter. Animals always had unlimited access to food and water and received a pelleted, total pathogen-free maintenance diet and tap drinking water, sterilized by filter.
# In case of incomplete dissolution, the formulation was filtered at 40 °C (non-pyrogenic sterile-R filter, 0.2 µm). All formulations were stirred warm until administration. Actual test item content was determined bioanalytically.
# Male BALB/cAnNCrl mice (n = 3 per test item and administration route) received a bolus dose of the formulated test item(s) (1 mg/kg iv, 30 mg/kg po) at t = 0 h, and whole blood samples were collected subsequently (35 µl at 0.1 (iv) / 0.25 (po), 0.5, 1, 2, 4, 6 h; 600 µl at sacrifice after 24 h). Animals were euthanized by exsanguination in deep isoflurane anesthesia. Whole blood samples were immediately stored on ice at about 4 °C. Plasma was separated by centrifugation at approximately 10,000 × g for 5 m at +4 °C. Centrifugation of each blood sample was started within 10 m after collection. A single aliquot of at least 15 µL of plasma was prepared and immediately stored at −20 ± 5 °C.
# Sample proteins were precipitated with ACN (1 + 12, v/v) containing internal standard, and supernatants analyzed by quantitative UPLC-MS/MS: Phenomenex Luna Omega C18, 2.1 × 50 mm, 1.6 µm, 40 °C, gradient between 10% - 90% ACN with 0.1% formic acid. LogD determination: Lipophilicity of the test items, expressed as chromLogD7.5, was assessed by measuring their chromatographic retention times on C18-material. The chromatographic retention versus logD7.5 values of a series of thirteen n-alkan-2-ones (2-butanone – 2-hexadecanone) served as lipophilicity calibration.
# [1] = target: endogenous ClpC1 in Msm #607 cells (Mycolicibacterium smegmatis, UniProt A0R574); assay type: cell-based, M. smegmatis; conditions: for ClpC1/Total protein / ClpC1 peak area / Total protein: well replicates of independent experiments
# [2] = Hepatocyte stability, mice; assay type: in vitro ADME
# Method in brief: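 Clearance expressed as % of liver blood flow (% Qh), derived from half-life via the well-stirred liver model. Compound at 1 µM final was incubated up to 6 h with ~1 million cells/mL hepatocytes in 50% serum buffer, 37 °C, pH 7.4.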
# Mtb # 11291 = assay: microbe, parasite or virus in culture; assay type: cell-based
# Pseudomonas aeruginosa = assay: MIC ESKAPES panel, Pseudomonas aeruginosa; assay type: cell-based
# Protocol: Minimum inhibitory concentration (MIC) against ESKAPES panel of Gram positive and Gram negative pathogens (Enterococcus faecium, Staphylococcus aureus, Klebsiella pneumoniae, Acinetobacter baumannii, Pseudomonas aeruginosa, Enterobacter cloacae and Salmonella typhimurium [ESKAPES panel]) were determined at the FNDR by the standard broth dilution method [CLSI, M100]. […] Mueller Hinton broth (MHB) medium was used to grow ESKAPES panel strains. The individual cultures were added as 200 μL (inoculum of 3–7 × 10^5 cfu/ml) to the respective assay plates in each well to all columns, except the media control (200 μL of medium). […] The assay plates were incubated at 37 °C, and the results were noted on the 2nd day as turbidometric readout. The clear wells indicated inhibition of growth, while the turbid wells indicated uninhibited growth.
# [3] = iv bolus, Mean, BLOQ <1.00 nmol/l
# Chain of endogenous ClpC1 in Msm #607 cells (A0R574 whole entry): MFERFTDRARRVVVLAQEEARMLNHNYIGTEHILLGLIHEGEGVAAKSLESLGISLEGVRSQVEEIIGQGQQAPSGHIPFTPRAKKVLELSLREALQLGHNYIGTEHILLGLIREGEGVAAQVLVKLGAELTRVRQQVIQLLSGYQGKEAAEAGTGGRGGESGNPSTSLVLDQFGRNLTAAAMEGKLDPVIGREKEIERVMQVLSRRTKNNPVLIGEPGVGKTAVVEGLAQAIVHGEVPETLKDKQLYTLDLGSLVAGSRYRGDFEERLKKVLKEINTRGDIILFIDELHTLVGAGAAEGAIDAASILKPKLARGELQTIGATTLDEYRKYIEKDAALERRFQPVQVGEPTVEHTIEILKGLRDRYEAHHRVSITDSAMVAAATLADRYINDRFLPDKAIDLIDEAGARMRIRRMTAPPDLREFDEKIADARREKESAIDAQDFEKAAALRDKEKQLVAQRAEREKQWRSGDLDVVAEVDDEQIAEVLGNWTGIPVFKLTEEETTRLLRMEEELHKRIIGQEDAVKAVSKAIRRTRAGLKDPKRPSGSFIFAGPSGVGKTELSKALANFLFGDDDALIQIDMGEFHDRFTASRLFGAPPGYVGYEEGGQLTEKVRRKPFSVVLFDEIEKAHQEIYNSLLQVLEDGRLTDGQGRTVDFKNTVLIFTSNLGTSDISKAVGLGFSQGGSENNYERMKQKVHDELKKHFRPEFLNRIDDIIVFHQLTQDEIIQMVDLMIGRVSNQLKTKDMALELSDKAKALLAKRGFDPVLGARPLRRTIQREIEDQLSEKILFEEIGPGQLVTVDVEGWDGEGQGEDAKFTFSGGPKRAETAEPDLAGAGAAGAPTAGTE
smiles,measurement,setting,value
COC(c1ccccc1)C1NC(=O)C(C)NC(=O)C(CC(C)CO)N(C)C(=O)C(Cc2cn(Cc3cn(CCOCCOCCOCCOCCn4cc(Cn5cc(CC6NC(=O)C(C(C)C)NC(=O)C(CC(C)C)N(C)C(=O)C(C(C)C)NC(=O)C(C(OC)c7ccccc7)NC(=O)C(C)NC(=O)C(CC(C)CO)N(C)C6=O)c6ccccc65)nn4)nn3)c3ccccc23)NC(=O)C(C(C)C)NC(=O)C(CC(C)C)N(C)C(=O)C(C(C)C)NC1=O (stereo not drawn) [Compound 8],Plasma concentration 2 h,"in vivo; iv bolus, Mean",346 nM
same,Plasma concentration 4 h,"in vivo; iv bolus, Mean",124 nM
same,Vss,"in vivo; iv bolus, Mean",0.5 L/kg
same,t1/2,"in vivo; iv bolus, Mean",6.7 h
same,Plasma concentration 6 h,in vivo; [3],95.5 nM
same,Plasma concentration 24 h,in vivo; [3],15.4 nM
same,VSS,in vivo; 1 mg kg-1 iv bolus,0.48 L/kg
same,Cl,"in vivo; plasma clearance, 1 mg kg-1 iv bolus",1.90 mL/min/kg
same,T1/2,"in vivo; plasma, 1 mg kg-1 iv bolus",6.74 h
same,DC50,"[1]; 24 hours, value of the earlier manuscript version quoted in the peer review file, read-out: average DC50, ClpC1 degradation",571 nM
same,DC50,"[1]; Msm #607, 24 h of incubation, read-out: average DC50, endogenous ClpC1 degradation",570 ± 400 nM
same,ClpC1/Total protein,[1]; conc. 0.00038147 µM,0.2282 and 0.267 and 0.2648 and 0.2027 and 0.212 and 0.2298 and 0.7429 and 0.8229 and 0.7712
same,ClpC1 peak area,[1]; conc. 0.00038147 µM,294811 and 344226 and 322628 and 390018 and 426373 and 358944 and 302120 and 328285 and 319637
same,Total protein,[1]; conc. 0.00038147 µM,1323644 and 1229496 and 1207050 and 1454716 and 1623647 and 1404254 and 524970 and 518103 and 465460
same,ClpC1/Total protein,[1]; conc. 0.00305176 µM,0.2394 and 0.2569 and 0.2557 and 0.2218 and 0.1962 and 0.1042 and 0.78 and 0.7556 and 0.8129
same,ClpC1 peak area,[1]; conc. 0.00305176 µM,298033 and 275548 and 121574 and 410944 and 384208 and 424052 and 320906 and 252067 and 328696
same,Total protein,[1]; conc. 0.00305176 µM,1340459 and 981268 and 1285339 and 1343857 and 1404470 and 1166366 and 526872 and 508500 and 521664
same,ClpC1/Total protein,[1]; conc. 0.0244141 µM,0.2203 and 0.2456 and 0.2539 and 0.1932 and 0.1901 and 0.2179 and 0.789 and 0.7808 and 0.8172
same,ClpC1 peak area,[1]; conc. 0.0244141 µM,219991 and 270896 and 315004 and 406280 and 373553 and 423254 and 300752 and 349284 and 304692
same,Total protein,[1]; conc. 0.0244141 µM,1364922 and 1422232 and 1199890 and 1138728 and 1425365 and 1445718 and 514950 and 478415 and 517944
same,ClpC1/Total protein,[1]; conc. 0.195312 µM,0.1965 and 0.2082 and 0.2171 and 0.1985 and 0.1828 and 0.1625 and 0.6454 and 0.6178 and 0.5924
same,ClpC1 peak area,[1]; conc. 0.195312 µM,206233 and 279281 and 214864 and 343404 and 327767 and 310653 and 236077 and 257791 and 242759
same,Total protein,[1]; conc. 0.195312 µM,1201296 and 1238340 and 1118172 and 1039169 and 1528116 and 1322136 and 532053 and 530512 and 524388
same,ClpC1/Total protein,[1]; conc. 1.5625 µM,0.183 and 0.1832 and 0.1776 and 0.1788 and 0.1391 and 0.1421 and 0.6251 and 0.5883 and 0.5813
same,ClpC1 peak area,[1]; conc. 1.5625 µM,199828 and 195826 and 198204 and 278984 and 250174 and 259931 and 291643 and 223291 and 227414
same,Total protein,[1]; conc. 1.5625 µM,1593808 and 1218853 and 1280312 and 1117747 and 1407385 and 1394918 and 446304 and 425280 and 447143
same,ClpC1/Total protein,[1]; conc. 100 µM,0.09806 and 0.1539 and 0.02961 and 0.1406 and 0.1399 and 0.1212 and 0.4923 and 0.5713 and 0.5017
same,ClpC1 peak area,[1]; conc. 100 µM,152582 and 201776 and 136372 and 183701 and 277792 and 199452 and 19555.5 and 216020 and 1024.1
same,Total protein,[1]; conc. 100 µM,199420 and 1403452 and 34585.2 and 1085305 and 1442135 and 1125592 and 373184 and 486260 and 397564
same,DC50,"[1]; mean of the measurements, read-out: DC50 Mean",571 nM
same,Hepatocyte Stability Mouse QH,[2]; Mouse,50.268%
same,Hepatocyte Mice,[2]; clearance in hepatocytes,32 %Qh
same,MIC,"Mtb # 11291; Mycobacterium tuberculosis, mean, n = 2 well replicates, read-out: MIC Mtb # 11291",< 0.1 µM and < 0.2 µg/mL
same,MIC,"Mtb # 11291; Mycobacterium tuberculosis, read-out: MIC Mtb # 11291, single well replicates",< 0.1 µM and < 0.21 µg/mL
same,MIC Mtb # 11291,"Mtb # 11291; single well replicates, listed as 8 (UdSBAI-0545)",<0.21 µg/mL
same,MIC,"Mtb # 11291; single well replicates, listed as 8 (UdSBAI-0545), read-out: MIC Mtb # 11291",<0.1 µM
same,MIC,"Pseudomonas aeruginosa; Gram-Negative Bacteria, replicates 1-3, listed as 8 (UdSBI-0545)",>50 µM
same,MIC,"Pseudomonas aeruginosa; Pseudomonas aeruginosa, Gram negative, n = 3 well replicates",> 50 µM
same,MIC,"Pseudomonas aeruginosa; Pseudomonas aeruginosa, Gram-Negative Bacteria, replicates 1-3",> 109 µg/mL
